This series concerns lymphoma cells (mantle cell lines and DLBCL cell lines). Kind of series: In vitro anti-cancer cell viability assay in lymphoma cell lines. The series is classed as cell-based. The method, then:
Effect of Composition SC-05-L-1 and Composition SC-05-K-1 against lymphoma cells was assessed by using cell viability assays in representative mantle cell lines and diffuse large B-cell lymphoma (DLBCL) cell lines. The cells were treated with increasing concentration of Compound SC-05-L-1 and Compound SC-05-K-1. Representative DLBCL cell lines sensitive or less sensitive to Compound SC-05-L-1 and Compound SC-05-K-1 were compared.

Take `CCN(CC)CCOc1ccc(/C(=C(/CCCOCC(O)CN2CCCNCCNCCCNCC2)c2ccccc2)c2ccccc2)cc1.Cl` [SC-05-L-1, (Z)-1-(1,4,8,11-tetraazacyclotetradecan-1-yl)-3-((5-(4-(2-(diethylamino)ethoxy)phenyl)-4,5-diphenylpent-4-en-1-yl)oxy)propan-2-ol hydrochloride salt]: the “anti-cancer effect against lymphoma cells” value (increasing concentration (FIG. 7A, 7B)) is listed as “dose-dependent manner against lymphoma cells”. Moreover, the relative toxicity entry (lymphoma cells, cyclam versus cyclen chelator (FIG. 8A, 8B)) is on record as “less toxic than Compound SC-05-K-1”.

The values are drawn from patent US11090395B2, “Composition for cross talk between estrogen receptors and cannabinoid receptors” (SeeCure Taiwan Co., Ltd., priority 2018, dated 2021).
